According to ChEMBL document CHEMBL1201862, “PubChem BioAssay data set” (2004):
Values belong to the compound of their own block, whether it stands above or below them. Active and inactive are the calls of the source.

Assays:
Type in all cases: functional
[1] = target: T1, Type-1 angiotensin II receptor (Homo sapiens, UniProt P30556); experiment: AT1 receptor agonists, dose response, selectivity assay for APJ receptor agonist project, cell-based, uHTS hits (AID 488865);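 note: beta-arrestin recruitment to AT1 measured by enzyme fragment complementation luminescence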
T1 sequence (P30556 whole entry): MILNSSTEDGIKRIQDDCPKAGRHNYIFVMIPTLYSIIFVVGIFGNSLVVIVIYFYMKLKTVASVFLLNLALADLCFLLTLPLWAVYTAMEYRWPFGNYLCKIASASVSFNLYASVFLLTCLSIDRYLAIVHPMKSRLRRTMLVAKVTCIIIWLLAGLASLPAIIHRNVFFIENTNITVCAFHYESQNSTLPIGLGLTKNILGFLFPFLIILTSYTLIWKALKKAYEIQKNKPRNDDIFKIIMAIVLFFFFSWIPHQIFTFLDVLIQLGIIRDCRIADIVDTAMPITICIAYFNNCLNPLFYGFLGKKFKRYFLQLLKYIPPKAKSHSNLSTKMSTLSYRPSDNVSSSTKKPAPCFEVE

Protein Tat = target: T2, Protein Tat (Human immunodeficiency virus type 1 group M subtype B (isolate HXB2)(HIV-1), UniProt P04608);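 note: tat binding to TAR RNA read out by fluorescence polarization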
T2 sequence (P04608 whole entry): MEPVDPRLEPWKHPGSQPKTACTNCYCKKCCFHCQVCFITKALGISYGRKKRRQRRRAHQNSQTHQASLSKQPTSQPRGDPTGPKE

[2] = target: Polyadenylate-binding protein 1 (Homo sapiens, UniProt P11940); experiment: PABP inhibition in translation initiation, SAR follow-up (AID 435018)
Sequence of Polyadenylate-binding protein 1 (P11940 whole entry): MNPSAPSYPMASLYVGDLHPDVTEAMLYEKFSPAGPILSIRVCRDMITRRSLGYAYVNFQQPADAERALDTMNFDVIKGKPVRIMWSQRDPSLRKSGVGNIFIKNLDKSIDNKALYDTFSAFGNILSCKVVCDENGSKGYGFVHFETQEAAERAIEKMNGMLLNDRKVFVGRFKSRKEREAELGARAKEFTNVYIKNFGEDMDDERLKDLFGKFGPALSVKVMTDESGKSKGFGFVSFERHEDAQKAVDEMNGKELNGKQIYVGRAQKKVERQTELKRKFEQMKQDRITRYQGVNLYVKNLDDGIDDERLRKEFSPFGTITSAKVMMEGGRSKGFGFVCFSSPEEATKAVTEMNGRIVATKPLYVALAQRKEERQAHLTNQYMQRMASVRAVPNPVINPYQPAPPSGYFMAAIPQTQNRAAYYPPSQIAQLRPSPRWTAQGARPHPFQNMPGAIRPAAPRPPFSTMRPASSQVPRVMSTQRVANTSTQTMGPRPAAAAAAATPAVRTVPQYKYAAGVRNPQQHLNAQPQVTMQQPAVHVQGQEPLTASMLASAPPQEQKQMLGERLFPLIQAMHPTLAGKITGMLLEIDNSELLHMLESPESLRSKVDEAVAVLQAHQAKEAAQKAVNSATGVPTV

[3] = target: Eukaryotic translation initiation factor 4H (Homo sapiens, UniProt Q15056); experiment: eIF4H inhibition in translation initiation, SAR follow-up (AID 435011)
[4] = target: DNA dC->dU-editing enzyme APOBEC-3G (Homo sapiens, UniProt Q9HC16);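 note: Dose-response counterscreen measuring inhibition of APOBEC3G DNA deaminase activity, run while confirming APOBEC3A inhibitors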
Sequence of DNA dC->dU-editing enzyme APOBEC-3G (Q9HC16 whole entry): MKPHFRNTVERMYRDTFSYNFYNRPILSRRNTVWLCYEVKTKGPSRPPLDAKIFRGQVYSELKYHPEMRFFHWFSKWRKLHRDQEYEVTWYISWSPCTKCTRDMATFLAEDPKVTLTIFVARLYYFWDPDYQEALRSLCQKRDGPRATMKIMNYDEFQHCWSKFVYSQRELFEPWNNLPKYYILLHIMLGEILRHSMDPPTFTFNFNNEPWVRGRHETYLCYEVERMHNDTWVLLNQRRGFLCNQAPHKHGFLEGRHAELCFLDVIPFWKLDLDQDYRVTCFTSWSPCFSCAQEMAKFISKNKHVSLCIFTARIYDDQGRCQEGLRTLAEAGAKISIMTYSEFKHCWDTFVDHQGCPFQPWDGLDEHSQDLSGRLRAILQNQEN

[5] = target: DNA dC->dU-editing enzyme APOBEC-3A (Homo sapiens, UniProt P31941); experiment: Dose Response confirmation of small molecule APOBEC3A DNA Deaminase Inhibitors via a fluorescence-based single-stranded DNA deaminase assay. [Related pubchem assays (depositor defined):AID493011, AID493024]
Sequence of DNA dC->dU-editing enzyme APOBEC-3A (P31941 whole entry): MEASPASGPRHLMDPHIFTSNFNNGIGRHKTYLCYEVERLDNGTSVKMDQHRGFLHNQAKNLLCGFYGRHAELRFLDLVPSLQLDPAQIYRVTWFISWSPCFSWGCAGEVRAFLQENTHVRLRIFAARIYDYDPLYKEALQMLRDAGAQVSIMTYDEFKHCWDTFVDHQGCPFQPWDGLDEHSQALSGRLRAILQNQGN

[6] = target: Voltage-dependent T-type calcium channel subunit alpha-1H (Homo sapiens, UniProt O95180); experiment: Cav3.2 T-type channel inhibitors, cell-based, synthetic library set 1, calcium flux (AID 493022)
Sequence of Voltage-dependent T-type calcium channel subunit alpha-1H (O95180 whole entry): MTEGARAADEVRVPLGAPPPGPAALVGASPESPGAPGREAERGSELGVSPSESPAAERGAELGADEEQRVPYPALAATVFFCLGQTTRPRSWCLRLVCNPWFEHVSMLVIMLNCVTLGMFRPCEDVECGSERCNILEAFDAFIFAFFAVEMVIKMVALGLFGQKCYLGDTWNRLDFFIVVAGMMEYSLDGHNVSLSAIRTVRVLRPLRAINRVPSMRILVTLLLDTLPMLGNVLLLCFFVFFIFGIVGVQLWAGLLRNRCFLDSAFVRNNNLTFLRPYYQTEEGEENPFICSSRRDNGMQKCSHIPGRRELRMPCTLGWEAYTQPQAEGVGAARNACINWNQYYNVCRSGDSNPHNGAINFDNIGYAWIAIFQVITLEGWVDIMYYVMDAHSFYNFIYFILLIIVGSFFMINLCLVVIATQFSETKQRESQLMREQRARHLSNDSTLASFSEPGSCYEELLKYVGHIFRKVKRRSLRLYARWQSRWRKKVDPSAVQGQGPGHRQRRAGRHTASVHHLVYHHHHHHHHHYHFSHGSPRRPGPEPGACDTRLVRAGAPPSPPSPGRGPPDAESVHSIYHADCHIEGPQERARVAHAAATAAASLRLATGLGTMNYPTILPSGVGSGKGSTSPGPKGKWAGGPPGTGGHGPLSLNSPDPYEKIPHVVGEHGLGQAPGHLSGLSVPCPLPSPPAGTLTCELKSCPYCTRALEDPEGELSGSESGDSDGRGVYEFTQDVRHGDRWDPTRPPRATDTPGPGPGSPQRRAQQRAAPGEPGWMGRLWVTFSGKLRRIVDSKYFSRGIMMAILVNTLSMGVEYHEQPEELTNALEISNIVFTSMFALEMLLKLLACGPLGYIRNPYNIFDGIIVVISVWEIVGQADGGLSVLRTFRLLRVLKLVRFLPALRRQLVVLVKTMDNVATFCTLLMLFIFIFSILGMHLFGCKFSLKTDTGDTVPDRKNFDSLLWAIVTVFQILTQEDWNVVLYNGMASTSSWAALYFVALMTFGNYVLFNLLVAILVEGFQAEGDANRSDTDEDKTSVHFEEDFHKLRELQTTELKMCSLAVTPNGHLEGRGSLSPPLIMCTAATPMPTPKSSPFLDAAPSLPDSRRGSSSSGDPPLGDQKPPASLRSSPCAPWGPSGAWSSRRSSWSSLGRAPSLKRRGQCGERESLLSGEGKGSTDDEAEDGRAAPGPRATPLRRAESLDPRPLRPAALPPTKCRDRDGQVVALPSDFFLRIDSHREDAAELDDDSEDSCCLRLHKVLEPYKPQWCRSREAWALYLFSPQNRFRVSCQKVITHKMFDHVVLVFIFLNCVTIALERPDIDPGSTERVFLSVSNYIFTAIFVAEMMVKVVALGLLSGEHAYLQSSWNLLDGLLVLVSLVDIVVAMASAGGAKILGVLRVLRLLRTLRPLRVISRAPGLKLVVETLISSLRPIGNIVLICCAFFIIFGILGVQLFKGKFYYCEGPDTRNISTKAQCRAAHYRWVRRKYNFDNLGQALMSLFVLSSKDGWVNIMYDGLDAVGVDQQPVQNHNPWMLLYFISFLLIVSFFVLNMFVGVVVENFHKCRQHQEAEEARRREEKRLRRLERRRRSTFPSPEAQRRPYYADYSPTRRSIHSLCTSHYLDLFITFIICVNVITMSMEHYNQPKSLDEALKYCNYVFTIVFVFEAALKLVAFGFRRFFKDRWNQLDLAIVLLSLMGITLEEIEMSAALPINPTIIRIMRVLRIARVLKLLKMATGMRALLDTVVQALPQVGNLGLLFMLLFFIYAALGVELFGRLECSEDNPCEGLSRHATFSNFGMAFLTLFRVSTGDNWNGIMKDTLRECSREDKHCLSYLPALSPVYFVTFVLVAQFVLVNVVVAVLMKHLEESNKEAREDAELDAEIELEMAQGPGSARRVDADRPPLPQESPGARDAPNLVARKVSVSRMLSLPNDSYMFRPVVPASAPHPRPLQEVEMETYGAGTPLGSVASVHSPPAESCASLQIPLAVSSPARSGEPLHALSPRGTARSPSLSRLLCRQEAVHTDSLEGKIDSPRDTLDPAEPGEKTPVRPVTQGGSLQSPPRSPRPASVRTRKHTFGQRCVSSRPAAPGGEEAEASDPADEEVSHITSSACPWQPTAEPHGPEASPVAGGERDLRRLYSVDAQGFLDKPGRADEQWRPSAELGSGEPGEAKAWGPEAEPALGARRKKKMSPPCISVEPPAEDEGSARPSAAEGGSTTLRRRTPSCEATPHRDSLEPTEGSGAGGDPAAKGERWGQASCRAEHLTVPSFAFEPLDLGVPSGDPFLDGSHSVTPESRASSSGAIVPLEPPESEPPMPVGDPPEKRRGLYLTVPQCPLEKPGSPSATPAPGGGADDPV

EC50 [1]: > 100 µM (inactive) | IC50 (Protein Tat): > 100 µM (active)
Compound: COc1ccc2[nH]c(=O)c(CN(Cc3ccco3)C(c3nnnn3Cc3ccccc3)C(C)C)cc2c1 (configuration not stated)

Compound: CCN1C(=O)CC(C(=O)Nc2ccc(F)cc2)S/C1=N\c1ccccc1OC (configuration not stated)
IC50 [2]: > 100 µM (inactive) | IC50 [3]: > 100 µM (inactive)

Compound: Cc1n(Cc2ccccc2)c2ccc(Cl)cc2[n+]1C
IC50 [4]: 4.75 µM (active) | IC50 [5]: 2.46 µM (active)

EC50 [6]: 1.7 µM (active)
Compound: O=C(COc1ccc(F)c(Cl)c1)Nc1nnc(-c2ccc(F)cc2)o1
